Measured values from patent US20130289019A1, “METHODS OF TREATING BEHAVIORIAL AND/OR MENTAL DISORDERS” (AMAZING GRACE, INC., priority 2012, published 2013).
“Also recorded” adds a separate entry of the source.

Key:
Type in all cases: in vivo, rat
[1] = tested on: ACh outflow in the NAcShell and swimming of rats; assay: local fluoxetine infusion in NAcShell: ACh outflow and swim test
[2] = tested on: rats (NAc infusion); assay: swim test scores during bilateral fluoxetine infusion in the NAc
[3] = tested on: rats (basal extracellular ACh in the NAcShell, swim test); assay: chronic systemic fluoxetine: basal extracellular ACh in NAcShell and swim test
[4] = tested on: rats (NAcShell infusion); assay: locomotor activity in the open field after bilateral fluoxetine infusion into NAcShell
[5] = 0.2 mM bilateral in NAc, fluoxetine on Day 2 (Ringer Day 3)
[6] = 0.2 mM bilateral in NAc, fluoxetine on Day 3 (Ringer Day 2)
[7] = 0.2 mM bilateral in NAc, on Day 2 or Day 3 (combined)
[8] = 0.5 mM bilateral in NAc, fluoxetine on Day 2 (Ringer Day 3)
[9] = 0.5 mM bilateral in NAc, fluoxetine on Day 3 (Ringer Day 2)
[10] = 0.5 mM bilateral in NAc, on Day 2 or Day 3 (combined)
[11] = 0.75 mM bilateral in NAc, fluoxetine on Day 2 (Ringer Day 3)
[12] = 0.75 mM bilateral in NAc, fluoxetine on Day 3 (Ringer Day 2)
[13] = 0.75 mM bilateral in NAc, on Day 2 or Day 3 (combined)

## CNCCC(Oc1ccc(C(F)(F)F)cc1)c1ccccc1 (centres unmarked) [Fluoxetine]
[1]; 1.0 mM local infusion in NAcShell, n=8
  swimming time greater than during Ringer: 18.9%
[1]; 1.0 mM local infusion in NAcShell, n=8, Ringer 277±44 sec
  swimming time during fluoxetine: 329 ± 45 s
[1]; during and following 1.0 mM fluoxetine infusion, vs Ringer infusion or pretest
  ACh outflow in the NAcShell, effect in words: substantially lower; also recorded: decreases the extracellular level of ACh
[1]; unilateral infusion into NAcShell
  immobility in the swim test, effect in words: decreases immobility
[2]; [5]
  Climbing score, FLU: 39 ± 12
  Immobility score, FLU: 66 ± 30
  Swimming score, FLU: 15 ± 17
[2]; [6]
  Climbing score, FLU: 60 ± 15
  Immobility score, FLU: 45 ± 13
  Swimming score, FLU: 14 ± 8
[2]; [7]
  Climbing score, FLU: 52 ± 10
  Immobility score, FLU: 53 ± 12
  Swimming score, FLU: 14 ± 7
[2]; [8]
  Climbing score, FLU: 45 ± 12
  Immobility score, FLU: 68 ± 9
  Swimming score, FLU: 6 ± 3
[2]; [9]
  Climbing score, FLU: 74 ± 10
  Immobility score, FLU: 39 ± 10
  Swimming score, FLU: 7 ± 6
[2]; [10]
  Climbing score, FLU: 61 ± 9
  Immobility score, FLU: 51 ± 8
  Swimming score, FLU: 7 ± 3
[2]; [11]
  Climbing score, FLU: 44 ± 10
  Immobility score, FLU: 62 ± 11
  Swimming score, FLU: 14 ± 7
[2]; [12]
  Climbing score, FLU: 57 ± 9
  Immobility score, FLU: 53 ± 7
  Swimming score, FLU: 10 ± 4
[2]; [13]
  Climbing score, FLU: 57 ± 9
  Immobility score, FLU: 53 ± 7
  Swimming score, FLU: 10 ± 4
[2]; bilateral infusion into NAcShell, dose-dependently
  immobility in the swim test, effect in words: decreases immobility
[3]; following chronic fluoxetine treatment, saline 42±11
  swimming plus climbing scores (total escape efforts): 55±7
[3]; low dose subcutaneously, daily over 14 days, rats in the forced swimming test
  basal ACh level in the NAcShell, effect in words: normalizes the chronic elevation in basal ACh level
[4]
  locomotor activity in the open field, in words: does not affect locomotor activity
